Assay results from patent US20090018019A1, “INCREASING PATHOGEN DEFENCE IN PLANTS” (priority 2005, published 2009).
Entries after “also recorded” stand apart in the source; their conditions may differ.

Legend:
Format in all cases: in vivo
[1] = test system: Contig2990_at CHITINASE (EC 3.2.1.14); assay: DNA chip expression analysis of barley leaves after soil treatment; settings: 10 mg per plant to soil
Method: (§1) Barley seeds (of the Baroness variety) were sown in pots containing soil about 2 cm deep (1250 g of sandy loam/per pot; the soil moisture content was adjusted to 70% of the maximum water-holding capacity) and cultivated in a climatized chamber under specified light, moisture and temperature conditions (15 h white light, 70% atmospheric humidity, 23-19° C. day/night).
(§2) 14 days after the emergence of the barley plants 10 mg of imidacloprid per plant, dissolved in 100 ml water, were applied by means of a pipette to the soil around the base of the shoot. The same volume of water without any active compound was applied to the control pots. After the soil treatment the plants were no longer watered. At various times after application (0.25; 1; 6; 8; 11; 13; 15; 16 and 17 days) the leaves were harvested, quick-frozen in liquid nitrogen and stored at −80° C. until further treatment.
(§3) The labelled RNA probes for the DNA chip hybridization were produced according to the protocols (Expression Analysis, Technical Manual) of the Affymetrix company (Affymetrix Inc., 3380 Central Expressway, Santa Clara, Calif., USA). Whole RNA was first of all isolated from in each case 500 mg of the harvested leaves. 10 μg portions of whole RNA were used for the first and second strand cDNA synthesis. The cDNA was amplified with T7 polymerase and simultaneously labelled with biotin-UTP. 20 μg portions of this biotinylated cDNA were used for the hybridization of the barley genome array (Barleyl Gene Chip, Item no: 511012) from Affymetrix. This DNA microarray contains DNA sequences of 22840 genes composed of a total of 400000 EST (Expressed Sequence Tag) sequences. Then the DNA microarrays were washed in the Affymetrix Fluidics Station, stained with streptavidin/phycoerythrin (Molecular Probes, P/N S-866) and scanned with the Affymetrix Gene Chip Scanner 3000. The fluorescence data obtained were analyzed with the Microarray Suite 5 software from Affymetrix and the Expressionist Pro software from the GeneData company. After a quality check, all of the DNA chip analyses were stored in a database. Since the Affymetrix Gene Chip System is based on measuring the absolute expression values of the genes contained in the chip, the expression values of the biological replicates of treated and non-treated plants were averaged after normalization (median calculation). With the aid of the statistical ANOVA method, those genes were identified whose expression was increased in the plants treated with imidacloprid but remained relatively constant in the untreated controls. The assembly of gene groups from specific metabolic pathways, signal transduction chains or functions was carried out by a keyword search through the gene annotations supplied by Affymetrix and by linking the genes to their corresponding Gene Ontology Annotations (Gene Ontology Consortium).

[2] = test system: Contig639_at PATHOGENESIS-RELATED PROTEIN PRECURSOR; assay: as above; settings: 10 mg per plant to soil
Method: as §1, §2, §3

[3] = test system: Contig11773_at REGULATOR OF PAT[…]; assay: as above; settings: 10 mg per plant to soil
Method: as §1, §2, §3

[4] = test system: Contig2210_at PATHOGENESIS-RELATED PROTEIN 1 PRECURSOR; assay: as above; settings: 10 mg per plant to soil
Method: as §1, §2, §3

[5] = test system: Contig4405_x_at PATHOGENESIS-RELATED PROTEIN PR-10A; assay: as above; settings: 10 mg per plant to soil
Method: as §1, §2, §3

genes for PR proteins = assay: DNA chip expression analysis of barley leaves after soil treatment, gene group; settings: treated plants compared with non-treated plants
Method: as §1, §2
The labelled RNA probes for the DNA chip hybridization were produced according to the protocols (Expression Analysis, Technical Manual) of the Affymetrix company (Affymetrix Inc., 3380 Central Expressway, Santa Clara, Calif., USA). Whole RNA was first of all isolated from in each case 500 mg of the harvested leaves. […] The fluorescence data obtained were analyzed with the Microarray Suite 5 software from Affymetrix and the Expressionist Pro software from the GeneData company. […]

O=[N+]([O-])/N=C1\NCCN1Cc1ccc(Cl)nc1 [imidacloprid]
Induction factor = Expression (treated)/Expression (untreated) ([1]; 0.25 d): 0.9
Median of the raw expression data, treated ([1]; 0.25 days): 31.12
Induction factor = Expression (treated)/Expression (untreated) ([1]; 1 d): 0.9
Median of the raw expression data, treated ([1]; 1 day): 29.13
Induction factor = Expression (treated)/Expression (untreated) ([1]; 6 d): 8.4
Median of the raw expression data, treated ([1]; 6 days): 561.20
Induction factor = Expression (treated)/Expression (untreated) ([1]; 8 d): 19.3
Median of the raw expression data, treated ([1]; 8 days): 830.74
Induction factor = Expression (treated)/Expression (untreated) ([1]; 11 d): 13.6
Median of the raw expression data, treated ([1]; 11 days): 664.56
Induction factor = Expression (treated)/Expression (untreated) ([1]; 13 d): 3.0
Median of the raw expression data, treated ([1]; 13 days): 235.46
Induction factor = Expression (treated)/Expression (untreated) ([1]; 15 d): 1.1
Median of the raw expression data, treated ([1]; 15 days): 227.32
Induction factor = Expression (treated)/Expression (untreated) ([1]; 16 d): 2.5
Median of the raw expression data, treated ([1]; 16 days): 76.80
Induction factor = Expression (treated)/Expression (untreated) ([1]; 17 d): 0.6
Median of the raw expression data, treated ([1]; 17 days): 32.84
Induction factor = Expression (treated)/Expression (untreated) ([2]; 0.25 d): 0.7
Median of the raw expression data, treated ([2]; 0.25 days): 157.66
Induction factor = Expression (treated)/Expression (untreated) ([2]; 1 d): 0.3
Median of the raw expression data, treated ([2]; 1 day): 38.68
Induction factor = Expression (treated)/Expression (untreated) ([2]; 6 d): 8.6
Median of the raw expression data, treated ([2]; 6 days): 2482.57
Induction factor = Expression (treated)/Expression (untreated) ([2]; 8 d): 14.7
Median of the raw expression data, treated ([2]; 8 days): 3944.01
Induction factor = Expression (treated)/Expression (untreated) ([2]; 11 d): 8.9
Median of the raw expression data, treated ([2]; 11 days): 4273.57
Induction factor = Expression (treated)/Expression (untreated) ([2]; 13 d): 11.3
Median of the raw expression data, treated ([2]; 13 days): 1496.21
Induction factor = Expression (treated)/Expression (untreated) ([2]; 15 d): 2.9
Median of the raw expression data, treated ([2]; 15 days): 920.86
Induction factor = Expression (treated)/Expression (untreated) ([2]; 16 d): 4.4
Median of the raw expression data, treated ([2]; 16 days): 1300.36
Induction factor = Expression (treated)/Expression (untreated) ([2]; 17 d): 2.9
Median of the raw expression data, treated ([2]; 17 days): 1196.37
Induction factor = Expression (treated)/Expression (untreated) ([3]; 0.25 d): 0.9
Median of the raw expression data, treated ([3]; 0.25 days): 175.49
Induction factor = Expression (treated)/Expression (untreated) ([3]; 1 d): 0.4
Median of the raw expression data, treated ([3]; 1 day): 70.99
Induction factor = Expression (treated)/Expression (untreated) ([3]; 6 d): 7.8
Median of the raw expression data, treated ([3]; 6 days): 1513.72
Induction factor = Expression (treated)/Expression (untreated) ([3]; 8 d): 11.0
Median of the raw expression data, treated ([3]; 8 days): 2102.86
Induction factor = Expression (treated)/Expression (untreated) ([3]; 11 d): 7.4
Median of the raw expression data, treated ([3]; 11 days): 1580.30
Induction factor = Expression (treated)/Expression (untreated) ([3]; 13 d): 3.5
Median of the raw expression data, treated ([3]; 13 days): 208.99
Induction factor = Expression (treated)/Expression (untreated) ([3]; 15 d): 1.9
Median of the raw expression data, treated ([3]; 15 days): 182.27
Induction factor = Expression (treated)/Expression (untreated) ([3]; 16 d): 3.8
Median of the raw expression data, treated ([3]; 16 days): 694.71
Induction factor = Expression (treated)/Expression (untreated) ([3]; 17 d): 2.3
Median of the raw expression data, treated ([3]; 17 days): 340.39
Induction factor = Expression (treated)/Expression (untreated) ([4]; 0.25 d): 0.6
Median of the raw expression data, treated ([4]; 0.25 days): 143.08
Induction factor = Expression (treated)/Expression (untreated) ([4]; 1 d): 0.4
Median of the raw expression data, treated ([4]; 1 day): 78.12
Induction factor = Expression (treated)/Expression (untreated) ([4]; 6 d): 7.9
Median of the raw expression data, treated ([4]; 6 days): 6881.20
Induction factor = Expression (treated)/Expression (untreated) ([4]; 8 d): 8.8
Median of the raw expression data, treated ([4]; 8 days): 8961.17
Induction factor = Expression (treated)/Expression (untreated) ([4]; 11 d): 5.4
Median of the raw expression data, treated ([4]; 11 days): 7946.25
Induction factor = Expression (treated)/Expression (untreated) ([4]; 13 d): 3.6
Median of the raw expression data, treated ([4]; 13 days): 1553.93
Induction factor = Expression (treated)/Expression (untreated) ([4]; 15 d): 2.8
Median of the raw expression data, treated ([4]; 15 days): 1970.04
Induction factor = Expression (treated)/Expression (untreated) ([4]; 16 d): 2.4
Median of the raw expression data, treated ([4]; 16 days): 2013.49
Induction factor = Expression (treated)/Expression (untreated) ([4]; 17 d): 0.7
Median of the raw expression data, treated ([4]; 17 days): 1121.55
Induction factor = Expression (treated)/Expression (untreated) ([5]; 0.25 d): 1.1
Median of the raw expression data, treated ([5]; 0.25 days): 60.34
Induction factor = Expression (treated)/Expression (untreated) ([5]; 1 d): 0.9
Median of the raw expression data, treated ([5]; 1 day): 55.96
Induction factor = Expression (treated)/Expression (untreated) ([5]; 6 d): 2.1
Median of the raw expression data, treated ([5]; 6 days): 146.82
Induction factor = Expression (treated)/Expression (untreated) ([5]; 8 d): 2.8
Median of the raw expression data, treated ([5]; 8 days): 181.30
Induction factor = Expression (treated)/Expression (untreated) ([5]; 11 d): 2.2
Median of the raw expression data, treated ([5]; 11 days): 125.79
Induction factor = Expression (treated)/Expression (untreated) ([5]; 13 d): 1.3
Median of the raw expression data, treated ([5]; 13 days): 55.42
Induction factor = Expression (treated)/Expression (untreated) ([5]; 15 d): 1.1
Median of the raw expression data, treated ([5]; 15 days): 57.66
Induction factor = Expression (treated)/Expression (untreated) ([5]; 16 d): 1.4
Median of the raw expression data, treated ([5]; 16 days): 88.69
Induction factor = Expression (treated)/Expression (untreated) ([5]; 17 d): 1.5
Median of the raw expression data, treated ([5]; 17 days): 87.06
expression of genes for PR proteins (genes for PR proteins): increased expression; also recorded: powerful induction
